Experimental data as given in ChEMBL document CHEMBL4138084, “Structure-activity relationship study of the tumour-targeting peptide A20FMDV2 via modification of Lys16, Leu13, and N- and/or C-terminal functionality” (Eur J Med Chem, 2017).

How the values were obtained:
Integrin alpha-V/beta-6 [1] = target: T1, Integrin alpha-V/beta-6 (Homo sapiens, UniProt P06756+P18564); experiment: Binding affinity to alphav/beta6 integrin in human A375Pbeta6 cells assessed as drug internalization at 100 nM after 15 mins by flow cytometric analysis relative to biotinylated A20FMDV2; assay type: ADME, cell-based; details: 0.25 h, 0.1 µM
Target sequence in this assay (P06756 31-889 limits assumed): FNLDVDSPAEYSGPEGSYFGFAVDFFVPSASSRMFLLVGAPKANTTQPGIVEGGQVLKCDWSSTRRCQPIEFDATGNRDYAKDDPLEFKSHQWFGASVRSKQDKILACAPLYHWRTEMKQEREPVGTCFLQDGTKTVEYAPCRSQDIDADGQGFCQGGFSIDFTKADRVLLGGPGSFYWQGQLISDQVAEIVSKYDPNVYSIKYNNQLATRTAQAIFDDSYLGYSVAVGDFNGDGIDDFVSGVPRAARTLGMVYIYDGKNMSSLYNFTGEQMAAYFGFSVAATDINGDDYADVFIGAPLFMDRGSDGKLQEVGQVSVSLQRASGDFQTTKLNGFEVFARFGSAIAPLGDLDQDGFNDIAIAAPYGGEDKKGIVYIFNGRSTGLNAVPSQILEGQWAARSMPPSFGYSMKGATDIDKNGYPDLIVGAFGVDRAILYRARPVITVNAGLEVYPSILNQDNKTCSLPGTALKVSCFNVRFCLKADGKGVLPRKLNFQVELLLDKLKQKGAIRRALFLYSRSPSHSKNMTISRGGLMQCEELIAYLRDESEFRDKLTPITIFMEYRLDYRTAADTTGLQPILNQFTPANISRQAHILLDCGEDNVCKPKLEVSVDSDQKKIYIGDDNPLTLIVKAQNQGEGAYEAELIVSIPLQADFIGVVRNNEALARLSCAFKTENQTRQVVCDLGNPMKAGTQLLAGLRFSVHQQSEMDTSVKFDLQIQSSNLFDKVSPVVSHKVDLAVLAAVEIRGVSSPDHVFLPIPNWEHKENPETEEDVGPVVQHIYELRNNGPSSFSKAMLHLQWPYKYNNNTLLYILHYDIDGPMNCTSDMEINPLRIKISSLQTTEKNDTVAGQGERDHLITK
Target sequence in this assay (P06756 891-1048 limits assumed): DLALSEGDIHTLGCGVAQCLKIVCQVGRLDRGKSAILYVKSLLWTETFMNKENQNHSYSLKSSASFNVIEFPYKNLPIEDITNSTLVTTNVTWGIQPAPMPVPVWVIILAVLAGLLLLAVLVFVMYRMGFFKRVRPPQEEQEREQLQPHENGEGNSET
Target sequence in this assay (P18564 22-788 limits assumed): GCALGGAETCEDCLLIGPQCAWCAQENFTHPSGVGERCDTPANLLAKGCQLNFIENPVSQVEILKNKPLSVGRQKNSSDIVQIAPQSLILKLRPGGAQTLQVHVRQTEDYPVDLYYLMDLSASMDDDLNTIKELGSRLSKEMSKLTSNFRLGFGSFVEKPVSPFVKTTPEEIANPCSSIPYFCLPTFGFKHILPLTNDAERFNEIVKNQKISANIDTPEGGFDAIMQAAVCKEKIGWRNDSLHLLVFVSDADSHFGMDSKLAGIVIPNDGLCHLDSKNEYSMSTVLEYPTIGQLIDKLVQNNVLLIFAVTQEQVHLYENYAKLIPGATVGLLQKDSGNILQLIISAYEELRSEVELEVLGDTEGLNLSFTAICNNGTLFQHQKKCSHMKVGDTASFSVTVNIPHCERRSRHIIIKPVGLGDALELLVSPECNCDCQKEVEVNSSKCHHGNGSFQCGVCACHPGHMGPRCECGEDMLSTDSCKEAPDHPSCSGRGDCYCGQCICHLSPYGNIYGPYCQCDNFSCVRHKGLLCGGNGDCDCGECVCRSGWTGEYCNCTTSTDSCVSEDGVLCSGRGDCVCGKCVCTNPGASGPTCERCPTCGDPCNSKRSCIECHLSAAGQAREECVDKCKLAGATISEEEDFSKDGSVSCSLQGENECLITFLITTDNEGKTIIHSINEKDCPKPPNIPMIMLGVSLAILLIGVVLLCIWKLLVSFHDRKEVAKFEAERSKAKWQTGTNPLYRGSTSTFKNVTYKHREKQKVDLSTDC

Integrin alpha-V/beta-6 [2] = target: T1, Integrin alpha-V/beta-6; experiment: Binding affinity to alphav/beta6 integrin in human A375Pbeta6 cells at 100 nM after 15 mins by flow cytometric analysis relative to biotinylated A20FMDV2; assay type: cell-based
[3] = Drug uptake in human A375PPuro cells at 1000 nM after 15 mins by flow cytometric analysis; assay type: ADME, cell-based; details: 0.25 h, 1 µM

Row | Structure (SMILES) | fold change (FC) (Integrin alpha-V/beta-6 [1]) | fold change (FC) (Integrin alpha-V/beta-6 [2]) | Drug uptake [3]
1 | C=CC[C@H](NC(=O)[C@@H](NC(=O)[C@H](CCC(N)=O)NC(=O)[C@H](CC(C)C)NC(=O)[C@H](CC(=O)O)NC(=O)CNC(=O)[C@H](CCCNC(=N)N)NC(=O)[C@H](CC(C)C)NC(=O)[C@H](CC(N)=O)NC(=O)[C@@H]1CCCN1C(=O)[C@@H](NC(=O)[C@H](CCCCNC(=O)CCCC[C@@H]1SC[C@@H]2NC(=O)N[C@@H]21)NC(=O)[C@@H](N)CC(N)=O)C(C)C)C(C)C)C(=O)N[C@@H](C)C(=O)N[C@@H](CCC(N)=O)C(=O)N[C@@H](CCCCN)C(=O)N[C@H](C(=O)N[C@@H](C)C(=O)N[C@@H](CCCNC(=N)N)C(=O)N[C@H](C(=O)O)[C@@H](C)O)C(C)C | 0.82 | 0.58 | Not Active
2 | CC(C)CC[C@H](NC(=O)[C@@H](NC(=O)[C@H](CCC(N)=O)NC(=O)[C@H](CC(C)C)NC(=O)[C@H](CC(=O)O)NC(=O)CNC(=O)[C@H](CCCNC(=N)N)NC(=O)[C@H](CC(C)C)NC(=O)[C@H](CC(N)=O)NC(=O)[C@@H]1CCCN1C(=O)[C@@H](NC(=O)[C@H](CCCCNC(=O)CCCC[C@@H]1SC[C@@H]2NC(=O)N[C@@H]21)NC(=O)[C@@H](N)CC(N)=O)C(C)C)C(C)C)C(=O)N[C@@H](C)C(=O)N[C@@H](CCC(N)=O)C(=O)N[C@@H](CCCCN)C(=O)N[C@H](C(=O)N[C@@H](C)C(=O)N[C@@H](CCCNC(=N)N)C(=O)N[C@H](C(=O)O)[C@@H](C)O)C(C)C | 0.66 | 0.45 | Not Active
3 | CC(C)C[C@H](NC(=O)[C@H](CC(=O)O)NC(=O)CNC(=O)[C@H](CCCNC(=N)N)NC(=O)[C@H](CC(C)C)NC(=O)[C@H](CC(N)=O)NC(=O)[C@@H]1CCCN1C(=O)[C@@H](NC(=O)[C@H](CCCCNC(=O)CCCC[C@@H]1SC[C@@H]2NC(=O)N[C@@H]21)NC(=O)[C@@H](N)CC(N)=O)C(C)C)C(=O)N[C@@H](CCC(N)=O)C(=O)N[C@H](C(=O)N[C@@H](CC(C)C)C(=O)N[C@@H](C)C(=O)N[C@@H](CCC(N)=O)C(=O)N[C@@H](CCCN)C(=O)N[C@H](C(=O)N[C@@H](C)C(=O)N[C@@H](CCCNC(=N)N)C(=O)N[C@H](C(=O)O)[C@@H](C)O)C(C)C)C(C)C | 0.86 | 1.12 | Not Active
4 | CCCC[C@H](NC(=O)[C@@H](NC(=O)[C@H](CCC(N)=O)NC(=O)[C@H](CC(C)C)NC(=O)[C@H](CC(=O)O)NC(=O)CNC(=O)[C@H](CCCNC(=N)N)NC(=O)[C@H](CC(C)C)NC(=O)[C@H](CC(N)=O)NC(=O)[C@@H]1CCCN1C(=O)[C@@H](NC(=O)[C@H](CCCCNC(=O)CCCC[C@@H]1SC[C@@H]2NC(=O)N[C@@H]21)NC(=O)[C@@H](N)CC(N)=O)C(C)C)C(C)C)C(=O)N[C@@H](C)C(=O)N[C@@H](CCC(N)=O)C(=O)N[C@@H](CCCCN)C(=O)N[C@H](C(=O)N[C@@H](C)C(=O)N[C@@H](CCCNC(=N)N)C(=O)N[C@H](C(=O)O)[C@@H](C)O)C(C)C | 1.15 | 1.16 | Not Active
5 | CC(C)C[C@H](NC(=O)[C@H](CC(=O)O)NC(=O)CNC(=O)[C@H](CCCNC(=N)N)NC(=O)[C@H](CC(C)C)NC(=O)[C@H](CC(N)=O)NC(=O)[C@@H]1CCCN1C(=O)[C@@H](NC(=O)[C@H](CCCCNC(=O)CCCC[C@@H]1SC[C@@H]2NC(=O)N[C@@H]21)NC(=O)[C@@H](N)CC(N)=O)C(C)C)C(=O)N[C@@H](CCC(N)=O)C(=O)N[C@H](C(=O)N[C@@H](CC(C)C)C(=O)N[C@@H](C)C(=O)N[C@@H](CCC(N)=O)C(=O)N[C@@H](CCN)C(=O)N[C@H](C(=O)N[C@@H](C)C(=O)N[C@@H](CCCNC(=N)N)C(=O)N[C@H](C(=O)O)[C@@H](C)O)C(C)C)C(C)C | 0.86 | 1 | Not Active
6 | CC(C)C[C@H](NC(=O)[C@H](CC(=O)O)NC(=O)CNC(=O)[C@H](CCCNC(=N)N)NC(=O)[C@H](CC(C)C)NC(=O)[C@H](CC(N)=O)NC(=O)[C@@H]1CCCN1C(=O)[C@@H](NC(=O)[C@H](CCCCNC(=O)CCCC[C@@H]1SC[C@@H]2NC(=O)N[C@@H]21)NC(=O)[C@H](CC(N)=O)NC(=O)CNC(=O)CN(CCN(CCN(CC(=O)O)CC(=O)O)CC(=O)O)CC(=O)O)C(C)C)C(=O)N[C@@H](CCC(N)=O)C(=O)N[C@H](C(=O)N[C@@H](CC(C)C)C(=O)N[C@@H](C)C(=O)N[C@@H](CCC(N)=O)C(=O)N[C@@H](CCCCN)C(=O)N[C@H](C(=O)N[C@@H](C)C(=O)N[C@@H](CCCNC(=N)N)C(=O)N[C@H](C(=O)O)[C@@H](C)O)C(C)C)C(C)C | 0.97 | 1.28 | Not Active
7 | CC(C)C[C@H](NC(=O)[C@H](CC(=O)O)NC(=O)CNC(=O)[C@H](CCCNC(=N)N)NC(=O)[C@H](CC(C)C)NC(=O)[C@H](CC(N)=O)NC(=O)[C@@H]1CCCN1C(=O)[C@@H](NC(=O)[C@H](CCCCNC(=O)CCCC[C@@H]1SC[C@@H]2NC(=O)N[C@@H]21)NC(=O)[C@@H](N)CC(N)=O)C(C)C)C(=O)N[C@@H](CCC(N)=O)C(=O)N[C@H](C(=O)N[C@@H](CC(C)(C)C)C(=O)N[C@@H](C)C(=O)N[C@@H](CCC(N)=O)C(=O)N[C@@H](CCCCN)C(=O)N[C@H](C(=O)N[C@@H](C)C(=O)N[C@@H](CCCNC(=N)N)C(=O)N[C@H](C(=O)O)[C@@H](C)O)C(C)C)C(C)C | 1.03 | 0.6 | Not Active
8 | CC(C)C[C@H](NC(=O)[C@H](CC(=O)O)NC(=O)CNC(=O)[C@H](CCCNC(=N)N)NC(=O)[C@H](CC(C)C)NC(=O)[C@H](CC(N)=O)NC(=O)[C@@H]1CCCN1C(=O)[C@@H](NC(=O)[C@H](CCCCNC(=O)CCCC[C@@H]1SC[C@@H]2NC(=O)N[C@@H]21)NC(=O)[C@@H](N)CC(N)=O)C(C)C)C(=O)N[C@@H](CCC(N)=O)C(=O)N[C@H](C(=O)NC(C)(C)C(=O)N[C@@H](C)C(=O)N[C@@H](CCC(N)=O)C(=O)N[C@@H](CCCCN)C(=O)N[C@H](C(=O)N[C@@H](C)C(=O)N[C@@H](CCCNC(=N)N)C(=O)N[C@H](C(=O)O)[C@@H](C)O)C(C)C)C(C)C | 1.11 | 1.07 | Not Active
9 | CC(C)C[C@H](NC(=O)[C@H](CC(=O)O)NC(=O)CNC(=O)[C@H](CCCNC(=N)N)NC(=O)[C@H](CC(C)C)NC(=O)[C@H](CC(N)=O)NC(=O)[C@@H]1CCCN1C(=O)[C@@H](NC(=O)[C@H](CCCCNC(=O)CCCC[C@@H]1SC[C@@H]2NC(=O)N[C@@H]21)NC(=O)[C@@H](N)CC(N)=O)C(C)C)C(=O)N[C@@H](CCC(N)=O)C(=O)N[C@H](C(=O)N[C@@H](CC(C)C)C(=O)N[C@@H](C)C(=O)N[C@@H](CCC(N)=O)C(=O)N[C@@H](CCCCN)C(=O)N[C@H](C(=O)N[C@@H](C)C(=O)N[C@@H](CCCNC(=N)N)C(=O)N[C@@H](C(=O)O)[C@H](C)O)C(C)C)C(C)C | 0.99 | 0.53 | Not Active
10 | CC(=O)N[C@@H](CC(N)=O)C(=O)N[C@@H](CCCCNC(=O)CCCC[C@@H]1SC[C@@H]2NC(=O)N[C@@H]21)C(=O)N[C@H](C(=O)N1CCC[C@H]1C(=O)N[C@@H](CC(N)=O)C(=O)N[C@@H](CC(C)C)C(=O)N[C@@H](CCCNC(=N)N)C(=O)NCC(=O)N[C@@H](CC(=O)O)C(=O)N[C@@H](CC(C)C)C(=O)N[C@@H](CCC(N)=O)C(=O)N[C@H](C(=O)N[C@@H](CC(C)C)C(=O)N[C@@H](C)C(=O)N[C@@H](CCC(N)=O)C(=O)N[C@@H](CCCCN)C(=O)N[C@H](C(=O)N[C@@H](C)C(=O)N[C@@H](CCCNC(=N)N)C(=O)N[C@H](C(N)=O)[C@@H](C)O)C(C)C)C(C)C)C(C)C | 0.87 | 1.25 | Not Active
11 | CC(C)C[C@H](NC(=O)[C@H](CC(=O)O)NC(=O)CNC(=O)[C@H](CCCNC(=N)N)NC(=O)[C@H](CC(C)C)NC(=O)[C@H](CC(N)=O)NC(=O)[C@@H]1CCCN1C(=O)[C@@H](NC(=O)[C@H](CCCCNC(=O)CCCC[C@@H]1SC[C@@H]2NC(=O)N[C@@H]21)NC(=O)[C@@H](N)CC(N)=O)C(C)C)C(=O)N[C@@H](CCC(N)=O)C(=O)N[C@H](C(=O)N[C@H](C(=O)N[C@@H](C)C(=O)N[C@@H](CCC(N)=O)C(=O)N[C@@H](CCCCN)C(=O)N[C@H](C(=O)N[C@@H](C)C(=O)N[C@@H](CCCNC(=N)N)C(=O)N[C@H](C(=O)O)[C@@H](C)O)C(C)C)C12CC3CC(CC(C3)C1)C2)C(C)C | 1.07 | 0.51 | Not Active
12 | CCC[C@H](NC(=O)[C@@H](NC(=O)[C@H](CCC(N)=O)NC(=O)[C@H](CC(C)C)NC(=O)[C@H](CC(=O)O)NC(=O)CNC(=O)[C@H](CCCNC(=N)N)NC(=O)[C@H](CC(C)C)NC(=O)[C@H](CC(N)=O)NC(=O)[C@@H]1CCCN1C(=O)[C@@H](NC(=O)[C@H](CCCCNC(=O)CCCC[C@@H]1SC[C@@H]2NC(=O)N[C@@H]21)NC(=O)[C@@H](N)CC(N)=O)C(C)C)C(C)C)C(=O)N[C@@H](C)C(=O)N[C@@H](CCC(N)=O)C(=O)N[C@@H](CCCCN)C(=O)N[C@H](C(=O)N[C@@H](C)C(=O)N[C@@H](CCCNC(=N)N)C(=O)N[C@H](C(=O)O)[C@@H](C)O)C(C)C | 1.09 | 0.77 | Not Active
13 | CC(C)C[C@H](NC(=O)[C@H](CC(=O)O)NC(=O)CNC(=O)[C@H](CCCNC(=N)N)NC(=O)[C@H](CC(C)C)NC(=O)[C@H](CC(N)=O)NC(=O)[C@@H]1CCCN1C(=O)[C@@H](NC(=O)[C@H](CCCCNC(=O)CCCC[C@@H]1SC[C@@H]2NC(=O)N[C@@H]21)NC(=O)[C@@H](N)CC(N)=O)C(C)C)C(=O)N[C@@H](CCC(N)=O)C(=O)N[C@H](C(=O)N[C@@H](CC1CCCCC1)C(=O)N[C@@H](C)C(=O)N[C@@H](CCC(N)=O)C(=O)N[C@@H](CCCCN)C(=O)N[C@H](C(=O)N[C@@H](C)C(=O)N[C@@H](CCCNC(=N)N)C(=O)N[C@H](C(=O)O)[C@@H](C)O)C(C)C)C(C)C | 1.01 | 0.62 | Not Active
